Test results published in patent publication US5900406A, “Use of antibiotics of the type 2-deoxystreptamine substituted with aminosugars to inhibit growth of microorganisms containing group I introns” (NZYM, Inc., priority 1991, dated 1999).

How the values were obtained:
[1] = tested on: td intron (group I intron of the thymidylate synthase gene of phage T4, truncated version); settings: td intron self-splicing; read-out: Michaelis constant (Km) for GTP; cited from earlier work
[2] = tested on: group II bI1 intron (first intron of the yeast mitochondrial apocytochrome b gene); assay: In vitro splicing of a group II intron in the presence of aminoglycosides; type: biochemical; settings: concentrations ≤5 mM
Procedure: FIG. 2c, Precursor -A of the group II bli intron (first intron of the yeast mitochondrial apocytochrome b gene) was incubated in a splicing buffer (40 mM Tris-HCl, pH 7.5, 60 mM MgCl2, 625 mM (NH4)2 SO4, 2 mM spermidine) at 42° C. for 60 min with increasing amounts of gentamicin as indicated. Splicing products were separated as in FIG. 2 A. C is an unincubated control.
(§1) Materials and Methods: In vitro splicing experiments were performed with a truncated version of the td gene, containing 79 nt of exon I, 265 nt of intron sequences containing only the catalytic core (delta P6-2) and 21 nt of exon H (Schroeder, von Ahsen, & Belfort, 199 1, Biochemistry 30, 3295). The plasmids containing the Tetrahymena rRNA intron and the yeast mitochondrial cob intron I (the group II intron) were pBGST7 (Been & Cech, 1986, Cell 47, 207) and pBSbIl (Schmelzer and Schweyen, 1986, Cell 46, 557), respectively. The sunY intron is described in Michel et al. (1990, Genes & Development 4, 777). DNA was prepared by the alkaline-lysis procedure and linearized with appropriate restriction enzymes. Transcription was performed in a total volume of 20 μl at 30° C. for one (1) hour in buffer containing 40 mM Tris-HCl pH 7.5, 3 mM MgCl2, 0.4 mM spermidine, 1 mM of each NTP, 5 mM DTIC, 10 units T7 RNA polymerase (Boehringer Mannheim), 10 μCi alpha-^35 S-CTP and 10 units RNAse inhibitor (Boehringer Mannheim). […]

[3] = tested on: td intron (group I intron of the thymidylate synthase gene of phage T4, truncated version); type: biochemical
Procedure: In vitro-transcribed and gel-purified^8 preRNA from a truncated version of the td intron^21 was incubated in a splicing buffer (50 mM Tris-HCl, pH 7.5, 5 mM MgCl2, 0.4 mM spermidine) for 10 min at 37° C. with GTP and gentamicin as indicated. Samples were separated on 5% acrylamide/7 M urea gels. RNA species are as follows: In-E2, intron-exon 2; L-ln, linear intron; E1-E2, ligated exons; E1, exon 1.
FIGS. 3a-c, Splicing experiments were done with the td intron as described in FIG. 2a, using several members of each family of aminoglycoside antibiotics (gentamicin, kanamycin and neomycin). Structures of the antibiotics can be found in Davies and Yagisaura in Biochemistry and Genetic Function Of Commercially Important Antibiotics, p. 329-354, Addison-Wesley, London, (1983) "Conc" is the antibiotic concentration at which about 50% inhibition was observed.
To monitor the splice process in vitro precursor RNA containing exon1, intron and exon2 was synthesized by in vitro transcription using bacteriophage RNA polymerase. During transcription, a radioactive labeled nucleotide was present in the nucleotide mixture and was incorporated in the RNA. This radioactive labeled RNA was then subjected to splicing conditions and after reaction the RNA splice products were separated from each other by electrophoresis on a denaturing acrylamide gel. The gel was dried and exposed for autoradiography.
Unspliced precursor RNA from the thymidylate synthase gene of the phage T4, which had been transcribed in vitro, and purified as previously described, (Schroeder, R., von Ahsen, U. & Belfort, M. Biochemistry 30, 3295-3303 (1991)) was incubated with increasing amounts of gentamicin under normal splicing conditions.
(§2) Materials and Methods: In vitro splicing experiments were performed with a truncated version of the td gene, containing 79 nt of exon I, 265 nt of intron sequences containing only the catalytic core (delta P6-2) and 21 nt of exon H (Schroeder, von Ahsen, & Belfort, 199 1, Biochemistry 30, 3295). The plasmids containing the Tetrahymena rRNA intron and the yeast mitochondrial cob intron I (the group II intron) were pBGST7 (Been & Cech, 1986, Cell 47, 207) and pBSbIl (Schmelzer and Schweyen, 1986, Cell 46, 557), respectively. The sunY intron is described in Michel et al. (1990, Genes & Development 4, 777). DNA was prepared by the alkaline-lysis procedure and linearized with appropriate restriction enzymes. Transcription was performed in a total volume of 20 μl at 30° C. for one (1) hour in buffer containing 40 mM Tris-HCl pH 7.5, 3 mM MgCl2, 0.4 mM spermidine, 1 mM of each NTP, 5 mM […], 10 units T7 RNA polymerase (Boehringer Mannheim), 10 μCi alpha-^35 S-CTP and 10 units RNAse inhibitor (Boehringer Mannheim). The reaction mixture was loaded on a 5% polyacrylamide/7 M urea gel. Precursor RNA was cut out of the gel and soaked in 400 μl elution buffer (10 mM Tris-HCl pH 7.5, 10 mM EDTA, 3.5 M NH4 OAc, 0.1% SDS) for two hours. After ethanol precipitation, the RNA was dissolved in H2 O-- before splicing experiments were performed the RNA was incubated in splicing buffer (40 mM Tris-HCl pH 7.5, 8 mM MgCl2, 0.4 mM spermidine) for 2 min at 56° C. For splicing of the suny intron and the Tetrahymena intron 50 mM NH4 Cl or 200 mM NaCl were added, respectively. Splicing was initiated by addition of guanosine at the appropriate concentration at 37° C. When splicing was to be inhibited by antibiotic, the antibiotic was added immediately before the guanosine. Splicing reactions were performed at 37° C. for 10'.

[4] = tested on: group I intron from the ribosomal RNA from Tetrahymena thermophila; assay: In vitro splicing inhibition of the Tetrahymena rRNA group I intron; type: biochemical; settings: read-out: concentration giving 50% inhibition of splicing
Procedure: To see whether this inhibition could be extended to all group I introns, the group I intron from the ribosomal RNA from Tetrahymena thermophila was tested for sensitivity towards gentamicin and again the splice reaction was inhibited. To test the specificity of this interaction of gentamicin with this type of catalytic RNA […]
as §1, with “enzymes.” for “enzymes. Transcription was performed in a total volume of 20 μl at 30° C. for one (1) hour in buffer containing 40 mM Tris-HCl pH 7.5, 3 mM MgCl2, 0.4 mM spermidine, 1 mM of each NTP, 5 mM DTIC, 10 units T7 RNA polymerase (Boehringer Mannheim), 10 μCi alpha-^35 S-CTP and 10 units RNAse inhibitor (Boehringer Mannheim).”

[5] = tested on: sunY intron (shortened version, construct SYC1.3); assay: In vitro splicing inhibition of the sunY group I intron (GTP incorporation assay); type: biochemical, T4-phage
Procedure: as §2, with “DNA” for “Materials and Methods: In vitro splicing experiments were performed with a truncated version of the td gene, containing 79 nt of exon I, 265 nt of intron sequences containing only the catalytic core (delta P6-2) and 21 nt of exon H (Schroeder, von Ahsen, & Belfort, 199 1, Biochemistry 30, 3295). The plasmids containing the Tetrahymena rRNA intron and the yeast mitochondrial cob intron I (the group II intron) were pBGST7 (Been & Cech, 1986, Cell 47, 207) and pBSbIl (Schmelzer and Schweyen, 1986, Cell 46, 557), respectively. The sunY intron is described in Michel et al. (1990, Genes & Development 4, 777). DNA”, “10'. […] Samples were separated on 5% acrylamide/7 M urea gels.” for “10'.”

Molecule | Km [1] [µM] | inhibition of splicing of the group II intron [2] | lowest concentration with splicing inhibition activity ([3]; activity at a concentration as low as) [µM] | antibiotic concentration affecting the first step of splicing ([3]; first step affected only at this concentration) [µM] | IC50 ([3]; in vitro splicing, 37° C., 10 min, read-out: concentration giving approximately 50% inhibition of the second splice step of the td intron) [µM] | IC50 [4] [µM] | concentration to which the sunY intron is sensitive [5] [µM] | concentration at which the second step (cleavage at the 3' splice-site and exon ligation) is completely inhibited ([3]; GTP 2.5 μM or 100 μM) [µM] | effect on the first step of splicing ([3]; concentrations ≤2 mM, whatever the guanosine concentration)
Nc1nc2c(ncn2[C@@H]2O[C@H](COP(=O)(O)OP(=O)(O)OP(=O)(O)O)[C@@H](O)[C@H]2O)c(=O)[nH]1 [GTP] | 1 | – | – | – | – | – | – | – | –
NC[C@H]1O[C@H](O[C@H]2[C@H](O)[C@@H](O[C@H]3O[C@H](CO)[C@@H](O)[C@H](N)[C@H]3O)[C@H](N)C[C@@H]2N)[C@H](N)C[C@@H]1O [Tobramycin] | – | not inhibited | 0.5 | 100 | ~0.5 | – | – | – | –
gentamicin | – | not inhibited | – | – | – | ~100 | 100 | 2.5 | little effect
